Results published in ChEMBL document CHEMBL1201862, “PubChem BioAssay data set” (2004).
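A five-concentration, 48-hour dose response in 96-well plates underlies each endpoint, interpolated linearly between surrounding concentrations. The concentration for 50% growth inhibition is given as GI50.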 Active and inactive are the calls of the source. Rule as the data show it: active = GI50 up to about 1.1 µM and inactive = higher.

What was measured:
Test in all cases: growth of human tumour cells (NCI), 48 h
[1] = test system: NCI-H23
[2] = test system: HCT-116
[3] = test system: NCI-H522
[4] = test system: IGROV-1
[5] = test system: NCI-H460
[6] = test system: NCI/ADR-RES
[7] = test system: UO-31
[8] = test system: UACC-62
[9] = test system: MDA-MB-435
[10] = test system: U-251
[11] = test system: OVCAR-4
[12] = test system: HT-29
[13] = test system: CAKI-1
[14] = test system: OVCAR-5
[15] = test system: ACHN
[16] = test system: T47D
[17] = test system: DU-145
[18] = test system: SNB-19
[19] = test system: K562

SMILES	GI50 [1]	GI50 [2]	GI50 [3]	GI50 [4]	GI50 [5]	GI50 [6]	GI50 [7]	GI50 [8]	GI50 [9]	GI50 [10]	GI50 [11]	GI50 [12]	GI50 [13]	GI50 [14]	GI50 [15]	GI50 [16]	GI50 [17]	GI50 [18]	GI50 [19]
CC1OC2OC3C(OCC(O)C3O)OC(=O)[C@]34CCC(C)(C)CC3C3=CCC5[C@@]6(C)C[C@H](O)[C@H](OC7OC(CO)C(O)C(O)C7OC7OCC(OC(=O)CC(C)(O)CC(=O)OC1C(OC1OC(CO)C(O)C(O)C1O)C2O)C(O)C7O)[C@@](C)(CO)C6CC[C@@]5(C)[C@]3(C)CC4 (stereo partly specified)	4.33 µM (inactive)	7.11 µM (inactive)	11.6 µM (inactive)	7.53 µM (inactive)	12 µM (inactive)	8.32 µM (inactive)	4.47 µM (inactive)	9.73 µM (inactive)	2.45 µM (inactive)	8.71 µM (inactive)	6.25 µM (inactive)	7.78 µM (inactive)	6.41 µM (inactive)	8.91 µM (inactive)	8.3 µM (inactive)	9.46 µM (inactive)	8.09 µM (inactive)	11.4 µM (inactive)	–
Cc1ncc2c(=O)c3c(oc2n1)c1ccccc1n3Cc1ccccc1	> 100 µM (inactive)	> 100 µM (inactive)	> 100 µM (inactive)	> 100 µM (inactive)	> 100 µM (inactive)	> 100 µM (inactive)	> 100 µM (inactive)	27 µM (inactive)	> 100 µM (inactive)	75.5 µM (inactive)	–	> 100 µM (inactive)	> 100 µM (inactive)	> 100 µM (inactive)	53.5 µM (inactive)	7.24 µM (inactive)	> 100 µM (inactive)	> 100 µM (inactive)	> 100 µM (inactive)
CCOC(=O)C1C(c2ccc(OC)cc2)c2c(nn(-c3ccccc3)c2O)CC1(O)OCC (stereo unspecified)	> 100 µM (inactive)	23.7 µM (inactive)	50.4 µM (inactive)	> 100 µM (inactive)	6.75 µM (inactive)	> 100 µM (inactive)	5.46 µM (inactive)	7.67 µM (inactive)	4.02 µM (inactive)	> 100 µM (inactive)	> 100 µM (inactive)	27.4 µM (inactive)	> 100 µM (inactive)	> 100 µM (inactive)	25.4 µM (inactive)	12.8 µM (inactive)	44.6 µM (inactive)	10 µM (inactive)	–
O=C(O)c1ccc2c(c1)CC1(C2)Cc2ccccc2C1=O (stereo unspecified)	> 100 µM (inactive)	> 100 µM (inactive)	> 100 µM (inactive)	> 100 µM (inactive)	> 100 µM (inactive)	> 100 µM (inactive)	> 100 µM (inactive)	> 100 µM (inactive)	> 100 µM (inactive)	> 100 µM (inactive)	> 100 µM (inactive)	> 100 µM (inactive)	–	> 100 µM (inactive)	> 100 µM (inactive)	> 100 µM (inactive)	> 100 µM (inactive)	> 100 µM (inactive)	> 100 µM (inactive)
CCN(CC)CCCNc1nnc(C)c2[nH]c3ccccc3c12	15.5 µM (inactive)	5.36 µM (inactive)	5.7 µM (inactive)	12.1 µM (inactive)	8.13 µM (inactive)	> 100 µM (inactive)	37.2 µM (inactive)	13.7 µM (inactive)	11.6 µM (inactive)	13.4 µM (inactive)	–	6.49 µM (inactive)	> 100 µM (inactive)	19.6 µM (inactive)	18 µM (inactive)	12.7 µM (inactive)	18.9 µM (inactive)	19.3 µM (inactive)	10.1 µM (inactive)
CCc1cc(-c2nsc(=O)o2)c(S(=O)(=O)CC)s1	45.4 µM (inactive)	43.3 µM (inactive)	22.2 µM (inactive)	34 µM (inactive)	> 100 µM (inactive)	> 100 µM (inactive)	> 100 µM (inactive)	–	55.3 µM (inactive)	> 100 µM (inactive)	> 100 µM (inactive)	84.9 µM (inactive)	56.9 µM (inactive)	> 100 µM (inactive)	> 100 µM (inactive)	76.7 µM (inactive)	> 100 µM (inactive)	77.8 µM (inactive)	37.2 µM (inactive)
FC(F)(F)c1ccc2nc3n(c2c1)C(c1c(Cl)cccc1Cl)SC3 (stereo unspecified)	15.1 µM (inactive)	10.5 µM (inactive)	11.9 µM (inactive)	11.5 µM (inactive)	14.5 µM (inactive)	11.3 µM (inactive)	13.8 µM (inactive)	14.5 µM (inactive)	15 µM (inactive)	17.4 µM (inactive)	15.8 µM (inactive)	15.4 µM (inactive)	14.8 µM (inactive)	15.9 µM (inactive)	15.9 µM (inactive)	11.2 µM (inactive)	17 µM (inactive)	18.6 µM (inactive)	–
CCCCc1ccc(-n2sc3ncccc3c2=O)cc1	15.9 µM (inactive)	11.6 µM (inactive)	2.58 µM (inactive)	12.3 µM (inactive)	5.26 µM (inactive)	14.4 µM (inactive)	11.3 µM (inactive)	12.4 µM (inactive)	16.3 µM (inactive)	15.1 µM (inactive)	13.6 µM (inactive)	16.1 µM (inactive)	–	18.5 µM (inactive)	11.4 µM (inactive)	13 µM (inactive)	21 µM (inactive)	21.9 µM (inactive)	–
C=CC[C@]12C[C@@H](C(=O)OC)N(C(=O)OC)[C@H]1N(S(=O)(=O)c1ccccc1)c1ccccc12	34.1 µM (inactive)	62.2 µM (inactive)	42.3 µM (inactive)	43.1 µM (inactive)	73.8 µM (inactive)	68.2 µM (inactive)	56 µM (inactive)	–	28.2 µM (inactive)	61.9 µM (inactive)	47.1 µM (inactive)	> 100 µM (inactive)	> 100 µM (inactive)	31.4 µM (inactive)	95.1 µM (inactive)	30.9 µM (inactive)	33.5 µM (inactive)	> 100 µM (inactive)	41.1 µM (inactive)
COc1ccc2nc3cc(Cl)ccc3c(NCCCN(Cc3cc(OC)c(OC)c(OC)c3)Cc3cc(OC)c(OC)c(OC)c3)c2c1	> 10 µM (inactive)	0.174 µM (active)	9.48 µM (inactive)	15.3 µM (inactive)	6.84 µM (inactive)	23.4 µM (inactive)	10.6 µM (inactive)	18.4 µM (inactive)	> 10 µM (inactive)	4.32 µM (inactive)	–	2.31 µM (inactive)	14.4 µM (inactive)	13.3 µM (inactive)	11.7 µM (inactive)	23 µM (inactive)	12.8 µM (inactive)	17.4 µM (inactive)	1.19 µM (inactive)
N#Cc1c(-c2ccc(Cl)cc2)c2c(n(C3OC(CO)C(O)C(O)C3O)c1=S)CCC2 (stereo unspecified)	25.4 µM (inactive)	34.4 µM (inactive)	–	34.1 µM (inactive)	33 µM (inactive)	61.2 µM (inactive)	38.7 µM (inactive)	17.1 µM (inactive)	19.8 µM (inactive)	31 µM (inactive)	34 µM (inactive)	29 µM (inactive)	30.2 µM (inactive)	41.3 µM (inactive)	33 µM (inactive)	20.5 µM (inactive)	42.4 µM (inactive)	22 µM (inactive)	14.7 µM (inactive)
S=c1[nH]c(Cl)cc2nc(Cl)cn12	5.82 µM (inactive)	3.82 µM (inactive)	1.57 µM (inactive)	4.34 µM (inactive)	13.6 µM (inactive)	2.54 µM (inactive)	4.7 µM (inactive)	6.93 µM (inactive)	2.09 µM (inactive)	4.53 µM (inactive)	6.14 µM (inactive)	4.66 µM (inactive)	4.53 µM (inactive)	–	8.61 µM (inactive)	23.4 µM (inactive)	5.01 µM (inactive)	6.04 µM (inactive)	–
O=c1[nH]c(Cc2ccccc2)nc2c1sc1nc3ccccc3n12	> 100 µM (inactive)	> 100 µM (inactive)	> 100 µM (inactive)	> 100 µM (inactive)	> 100 µM (inactive)	> 100 µM (inactive)	> 100 µM (inactive)	> 100 µM (inactive)	> 100 µM (inactive)	> 100 µM (inactive)	–	> 100 µM (inactive)	> 100 µM (inactive)	> 100 µM (inactive)	> 100 µM (inactive)	60.5 µM (inactive)	> 100 µM (inactive)	> 58.3 µM (inactive)	–
Clc1ccccc1/C=C/c1nsc(/C=C/c2ccccc2Cl)n1	–	34.8 µM (inactive)	33.1 µM (inactive)	84.1 µM (inactive)	21.4 µM (inactive)	45.2 µM (inactive)	> 100 µM (inactive)	–	42.6 µM (inactive)	34.8 µM (inactive)	81.7 µM (inactive)	35.2 µM (inactive)	> 100 µM (inactive)	> 100 µM (inactive)	50.4 µM (inactive)	10.4 µM (inactive)	> 100 µM (inactive)	> 100 µM (inactive)	21.8 µM (inactive)
CN(C)c1cc[n+](-c2nc([N-]C(=O)C(F)(F)F)nc3c2ncn3C2CC(O)C(CO)O2)cc1 (stereo unspecified)	> 100 µM (inactive)	> 100 µM (inactive)	> 100 µM (inactive)	> 100 µM (inactive)	> 100 µM (inactive)	> 100 µM (inactive)	> 100 µM (inactive)	> 100 µM (inactive)	> 100 µM (inactive)	> 100 µM (inactive)	> 100 µM (inactive)	> 100 µM (inactive)	–	> 100 µM (inactive)	> 100 µM (inactive)	> 100 µM (inactive)	> 100 µM (inactive)	> 100 µM (inactive)	> 100 µM (inactive)
